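Test compounds were applied to cells in 96-well plates for 48 hours at 5 doses. Abbreviation: GI50, concentration required for 50% inhibition of growth. Definition used: TGI = concentration required for complete inhibition of growth.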
Assays:
Test in all cases: NCI tumour cell line growth inhibition, 48 h
ACHN renal = tested on: ACHN renal
SK-MEL-28 melanoma = tested on: SK-MEL-28 melanoma
SNB-75 CNS = tested on: SNB-75 CNS
DU-145 prostate = tested on: DU-145 prostate
P388/ADR leukemia = tested on: P388/ADR leukemia
NCI-H522 lung = tested on: NCI-H522 lung
IGROV1 ovarian = tested on: IGROV1 ovarian
LOX IMVI melanoma = tested on: LOX IMVI melanoma
KM20L2 colon = tested on: KM20L2 colon
EKVX NSCLC = tested on: EKVX NSCLC
HOP-62 NSCLC = tested on: HOP-62 NSCLC
UO-31 renal = tested on: UO-31 renal
SF-539 CNS = tested on: SF-539 CNS
TK-10 renal = tested on: TK-10 renal
SK-MEL-2 melanoma = tested on: SK-MEL-2 melanoma
HOP-92 NSCLC = tested on: HOP-92 NSCLC
NCI-H226 lung = tested on: NCI-H226 lung
SN12K1 renal = tested on: SN12K1 renal
UACC-257 melanoma = tested on: UACC-257 melanoma
M14 melanoma = tested on: M14 melanoma
UACC-62 melanoma = tested on: UACC-62 melanoma
HS 578T breast = tested on: HS 578T breast
PC-3 prostate = tested on: PC-3 prostate
MCF7 breast = tested on: MCF7 breast
COLO 205 colon = tested on: COLO 205 colon
SK-OV-3 ovarian = tested on: SK-OV-3 ovarian
A498 renal = tested on: A498 renal
MOLT-4 leukemia = tested on: MOLT-4 leukemia
KM12 colon = tested on: KM12 colon
XF 498 CNS = tested on: XF 498 CNS
SF-268 CNS = tested on: SF-268 CNS
SR leukemia = tested on: SR leukemia
HL-60(TB) leukemia = tested on: HL-60(TB) leukemia
CCRF-CEM leukemia = tested on: CCRF-CEM leukemia
786-0 renal = tested on: 786-0 renal
SK-MEL-5 melanoma = tested on: SK-MEL-5 melanoma
HCC-2998 colon = tested on: HCC-2998 colon
HOP-18 NSCLC = tested on: HOP-18 NSCLC
MALME-3M melanoma = tested on: MALME-3M melanoma
A549 NSCLC = tested on: A549 NSCLC
CAKI-1 renal = tested on: CAKI-1 renal
M19-MEL melanoma = tested on: M19-MEL melanoma
MDA-N = tested on: MDA-N
HT29 colon = tested on: HT29 colon
RPMI-8226 leukemia = tested on: RPMI-8226 leukemia
K-562 leukemia = tested on: K-562 leukemia
BT-549 breast = tested on: BT-549 breast
SW-620 colon = tested on: SW-620 colon
OVCAR-3 ovarian = tested on: OVCAR-3 ovarian
OVCAR-5 ovarian = tested on: OVCAR-5 ovarian
SF-295 CNS = tested on: SF-295 CNS
OVCAR-8 ovarian = tested on: OVCAR-8 ovarian
MDA-MB-231 breast = tested on: MDA-MB-231 breast
SNB-19 CNS = tested on: SNB-19 CNS
HCT-15 colon = tested on: HCT-15 colon
DMS 273 small cell lung = tested on: DMS 273 small cell lung
HCT-116 colon = tested on: HCT-116 colon
T-47D breast = tested on: T-47D breast
P388 leukemia = tested on: P388 leukemia
DLD-1 colon = tested on: DLD-1 colon
SN12C renal = tested on: SN12C renal
NCI/ADR-RES ovarian = tested on: NCI/ADR-RES ovarian
MDA-MB-435 = tested on: MDA-MB-435
NCI-H460 lung = tested on: NCI-H460 lung
OVCAR-4 ovarian = tested on: OVCAR-4 ovarian
U251 CNS = tested on: U251 CNS
NCI-H23 lung = tested on: NCI-H23 lung
SNB-78 CNS = tested on: SNB-78 CNS
RXF 393 renal = tested on: RXF 393 renal

Work on COc1cc([C@@H]2c3cc4c(cc3[C@@H](OC3OC5CO[C@@H](c6cccs6)OC5C(O)C3O)[C@H]3COC(=O)[C@H]23)OCO4)cc(OC)c1O (stereo not given in full) yielded a TGI (ACHN renal) of 2120 nM, a TGI (SK-MEL-28 melanoma) of 12.4 µM and a TGI (SNB-75 CNS) of 4 µM. For the same compound, the TGI (DU-145 prostate) was 2120 nM, the TGI (P388/ADR leukemia) was 14.3 µM and the TGI (NCI-H522 lung) was 4.16 µM. For the same compound, the TGI (IGROV1 ovarian) was 13.3 µM, the TGI (LOX IMVI melanoma) was 4.4 µM and the TGI (KM20L2 colon) was 14.6 µM. For the same compound, the TGI (EKVX NSCLC) was 4.33 µM, the TGI (HOP-62 NSCLC) was 866 nM and the TGI (UO-31 renal) was 12.1 µM. For the same compound, the TGI (SF-539 CNS) was 2200 nM, the TGI (TK-10 renal) was 6.89 µM and the TGI (SK-MEL-2 melanoma) was 4.37 µM. The TGI (HOP-92 NSCLC) was 1760 nM, the TGI (NCI-H226 lung) was 3.05 µM and the TGI (SN12K1 renal) was 1840 nM. For the same compound, the TGI (UACC-257 melanoma) was 12.3 µM, the TGI (M14 melanoma) was 3.71 µM and the TGI (UACC-62 melanoma) was 2710 nM. The TGI (HS 578T breast) was 4.71 µM, the TGI (PC-3 prostate) was 21.9 µM and the TGI (MCF7 breast) was 15.6 µM. The TGI (COLO 205 colon) was 5.06 µM, the TGI (SK-OV-3 ovarian) was 1930 nM and the TGI (A498 renal) was 3.51 µM. The GI50 (MOLT-4 leukemia) was 16.1 nM, the TGI (MOLT-4 leukemia) was 473 nM and the TGI (KM12 colon) was 5.06 µM. The TGI (XF 498 CNS) was 3.73 µM, the TGI (SF-268 CNS) was 7.24 µM and the TGI (SR leukemia) was 3.28 µM. For the same compound, the TGI (HL-60(TB) leukemia) was 1350 nM, the TGI (CCRF-CEM leukemia) was 3.89 µM and the TGI (786-0 renal) was 1190 nM. It also gave a TGI (SK-MEL-5 melanoma) of 3.31 µM, a TGI (HCC-2998 colon) of 3.47 µM and a TGI (HOP-18 NSCLC) of 14.2 µM. The TGI (MALME-3M melanoma) was 4.29 µM, the TGI (A549 NSCLC) was 4.17 µM and the TGI (CAKI-1 renal) was 2000 nM. It also gave a TGI (M19-MEL melanoma) of 12.4 µM, a TGI (MDA-N) of 10.4 µM and a TGI (HT29 colon) of 11.7 µM. It also gave a TGI (RPMI-8226 leukemia) of 3.35 µM, a TGI (K-562 leukemia) of 17.2 µM and a TGI (BT-549 breast) of 2530 nM. For the same compound, the TGI (SW-620 colon) was 9.5 µM, the TGI (OVCAR-3 ovarian) was 6.89 µM and the TGI (OVCAR-5 ovarian) was 11.7 µM. For the same compound, the TGI (SF-295 CNS) was 1200 nM, the TGI (OVCAR-8 ovarian) was 3.5 µM and the TGI (MDA-MB-231 breast) was 3.81 µM. It also gave a TGI (SNB-19 CNS) of 9.24 µM, a TGI (HCT-15 colon) of 11.3 µM and a TGI (DMS 273 small cell lung) of 3.03 µM. The TGI (HCT-116 colon) was 10.7 µM, the TGI (T-47D breast) was 4.21 µM and the TGI (P388 leukemia) was 1930 nM. For the same compound, the TGI (DLD-1 colon) was 11.3 µM, the TGI (SN12C renal) was 2330 nM and the TGI (NCI/ADR-RES ovarian) was 25 µM. It also gave a TGI (MDA-MB-435) of 10.7 µM, a TGI (NCI-H460 lung) of 2590 nM and a TGI (OVCAR-4 ovarian) of 16.7 µM. It also gave a TGI (U251 CNS) of 2470 nM, a TGI (NCI-H23 lung) of 4.44 µM and a TGI (SNB-78 CNS) of 10.4 µM. For the same compound, the TGI (RXF 393 renal) was 3.38 µM.

— PubChem BioAssay (NCI)
